Structures are written as SMILES. The source made the active and inactive calls. No cut-off for these calls is given here. *1 amine or outer side, *2 acyl side, *3 side chain or, on linkers, in order; H or OH if unused. Where a SMILES comes first, the peptide text is derived from it. Bridges are numbered along the chain shown (N, C = ends). [ ]: non-standard residue; d: D form. The star is where a group is joined. X1 = NC1=N[C@@H]([C@H](N[*:1])C(=O)[*:2])C[C@H](O)N1; ΔAla(Z-3-ureido) = NC(=O)N/C=C(\N)C(=O)O; β3hOrn = NCCC[C@H](N)CC(=O)*; Dap = NC[C@H](N)C(=O)O

What all share (type): nucleic-acid assay
Experiment [1] concerns Nucleic Acid. Put plainly: Displacement of gentamycin from Escherichia coli 16S ribosomal 27-nucleotide A-site RNA by water Logsy NMR spectroscopy based competitive displacement assay.
Experiment [2] deals with Nucleic Acid. Put plainly: Displacement of gentamycin from Escherichia coli 16S ribosomal 27-nucleotide A-site RNA by T2 filter NMR spectroscopy based competitive displacement assay.
The target of experiment [3] is Nucleic Acid. Put plainly: Binding affinity to RNA ribosome intersubuint bridge.
Experiment [4] has as its target Nucleic Acid. The experiment in a line: Binding affinity to A-site RNA.
In experiment [5] the test system is Nucleic Acid. Put plainly: Binding affinity to Escherichia coli 23S rRNA L11 binding domain.
Experiment [6] has as its target Nucleic Acid. The experiment in a line: Binding affinity to ribosome/exit tunnel RNA region.
Experiment [7] concerns the target Nucleic Acid. The experiment in a line: Binding affinity to RNAse P.
For experiment [8], the system named is Nucleic Acid. Put plainly: Displacement of gentamycin from RNA bulge site of Escherichia coli 16S ribosomal 27-nucleotide A-site RNA by water Logsy NMR spectroscopy based noncompetitive binding assay.
For experiment [9], the system named is Nucleic Acid. Put plainly: Displacement of gentamycin from RNA bulge site of Escherichia coli 16S ribosomal 27-nucleotide A-site RNA by T2 filter NMR spectroscopy based competitive binding assay.
Experiment [10] has as its target Nucleic Acid. The experiment in a line: Binding affinity to small bacterial subunit RNA.
In experiment [11] the test system is Nucleic Acid. Put plainly: Binding affinity to Escherichia coli 23S rRNA L11 binding domain in presence of protein.

Regarding `Cc1cc(N(C)C)nc2cc(N)ccc12`, the result in the experiment on Nucleic Acid [1] and in the experiment on Nucleic Acid [2] was Active.
A word on the Kd: it is the concentration at which binding is half-saturated. Regarding `NCCC[C@H](N)CC(=O)N[C@H]1CNC(=O)[C@H]([C@H]2C[C@H](O)NC(N)=N2)NC(=O)/C(=C/NC(N)=O)NC(=O)[C@H](CO)NC(=O)[C@H](CO)NC1=O` [VIOMYCIN] (β3hOrn-[Dap]SS[ΔAla(Z-3-ureido)][X1]; lactam 1-C), the Kd on Nucleic Acid [3] is less than 3000 nM.
`NC[C@@H]1O[C@H](O[C@H]2[C@@H](O)[C@H](O[C@@H]3[C@@H](O)[C@H](N)C[C@H](N)[C@H]3O[C@H]3O[C@H](CN)[C@@H](O)[C@H](O)[C@H]3N)O[C@@H]2CO)[C@H](N)[C@@H](O)[C@@H]1O` [FRAMYCETIN] returned a Kd at Nucleic Acid [4] of 60 nM.
The same measure, in the same setting: as for `CN[C@@H]1[C@@H](O[C@H]2O[C@H](CO)[C@@H](N)[C@H](O)[C@H]2O)OC2C[C@@H](N)[C@@H](O[C@H]3[C@H](O)[C@@H](O)[C@H](N)C[C@@H]3N)OC2[C@@H]1O` (stereo partly drawn) [APRAMYCIN], the figure is 60 nM.
Consider `C=C(NC(=O)c1csc(-c2nc3c(cc2O)-c2nc(cs2)C(=O)NC(C(C)O)C(=O)N/C(=C\C)c2nc(cs2)C(=O)NC2CC(O)C(=O)OCc4cccc5[nH]c(c(C)c45)C(=O)SCC(NC(=O)c4csc2n4)c2nc-3cs2)n1)C(N)=O` (stereo not drawn) [NOSIHEPTIDE], for which the Kd in the experiment with Nucleic Acid [5] is less than 3000 nM.
Take `CC[C@H]1OC(=O)C[C@@H](O)[C@H](C)[C@@H](O[C@@H]2O[C@H](C)[C@@H](O[C@H]3C[C@@](C)(O)[C@@H](O)[C@H](C)O3)[C@H](N(C)C)[C@H]2O)[C@@H](CC=O)C[C@@H](C)C(=O)/C=C/C(C)=C/[C@@H]1CO[C@@H]1O[C@H](C)[C@@H](O)[C@@H](OC)[C@H]1OC` [TYLOSIN]: binding on Nucleic Acid [6] was characterised by a dissociation constant (Kd) of 2.75 nM.
The molecule `NC[C@H]1O[C@H](O[C@H]2[C@H](O)[C@@H](O[C@H]3O[C@H](CO)[C@@H](O)[C@H](N)[C@H]3O)[C@H](N)C[C@@H]2N)[C@H](N)C[C@@H]1O` [TOBRAMYCIN] yielded a Kd at Nucleic Acid [4] of 80 nM.
With `NC(=O)Cc1ccccn1` [PYRIDINE ACETAMIDE], binding on Nucleic Acid [7] was characterised by a dissociation constant (Kd) of 20 µM.
For the molecule `N[C@@H]1C[C@H](N)[C@@H](O)[C@H](O)[C@H]1O`, the result in the experiment with Nucleic Acid [1] and in the experiment on Nucleic Acid [2] was Active.
For `c1ccc2nc3ccccc3cc2c1`, the outcome with Nucleic Acid [8] and with Nucleic Acid [9] was Active.
In the case of `CN[C@@H]1[C@@H](O)[C@@H](O[C@@H]2[C@@H](O)[C@H](O[C@H]3O[C@H]([C@@H](C)O)[C@@H](O)[C@H](O)[C@H]3N)[C@@H](N)C[C@H]2N)OC[C@]1(C)O` [GENETICIN], the dissociation constant Kd on Nucleic Acid [4] is less than 100 nM.
Molecule `NC[C@@H]1O[C@H](O[C@H]2[C@@H](O)[C@H](O[C@@H]3[C@@H](O)[C@H](N)C[C@H](N)[C@H]3O[C@H]3O[C@H](CO)[C@@H](O)[C@H](O)[C@H]3N)O[C@@H]2CO)[C@H](N)[C@@H](O)[C@@H]1O` [PAROMOMYCIN] registered a Kd on Nucleic Acid [4] of less than 12000 nM.
For the molecule `NC[C@H]1O[C@H](O[C@H]2[C@H](O[C@@H]3O[C@H](CO)[C@@H](O)[C@H]3O)[C@@H](O)[C@H](N)C[C@@H]2N)[C@H](N)[C@@H](O)[C@@H]1O` [RIBOSTAMYCIN], the Kd on Nucleic Acid [4] turned out to be 1700 nM.
As to `CN[C@@H]1[C@H](O[C@H]2[C@H](O[C@H]3[C@H](O)[C@@H](O)[C@H](N=C(N)N)[C@@H](O)[C@@H]3N=C(N)N)O[C@@H](C)[C@]2(O)C=O)O[C@@H](CO)[C@H](O)[C@H]1O` [STREPTOMYCIN], the Kd on Nucleic Acid [10] is less than 12 µM.
Regarding `C=C(NC(=O)C(=C)NC(=O)c1csc(C2=N[C@@H]3c4csc(n4)[C@H]4NC(=O)c5csc(n5)[C@H]([C@](C)(O)[C@@H](C)O)NC(=O)[C@H]5CSC(=N5)/C(=C/C)NC(=O)[C@H]([C@@H](C)O)NC(=O)c5csc(n5)[C@]3(CC2)NC(=O)[C@H](C)NC(=O)C(=C)NC(=O)[C@H](C)NC(=O)[C@H]([C@@H](C)CC)N[C@@H]2C=Cc3c([C@H](C)O)cc(nc3[C@H]2O)C(=O)O[C@@H]4C)n1)C(N)=O` [THIOSTREPTON], the Kd in the experiment with Nucleic Acid [11] is less than 50 nM; with Nucleic Acid [5], 1300 nM.
For the molecule `NC[C@@H]1O[C@@H](O[C@H]2[C@H](O)[C@@H](O[C@H]3O[C@H](CO)[C@@H](O)[C@H](N)[C@H]3O)[C@H](N)C[C@@H]2N)[C@@H](O)[C@H](O)[C@H]1O` [KANAMYCIN A], the Kd on Nucleic Acid [4] came to 100 nM.
Regarding `NCC[C@H](O)C(=O)N[C@@H]1C[C@H](N)[C@@H](O[C@H]2O[C@H](CN)[C@@H](O)[C@H](O)[C@H]2O)[C@H](O)[C@H]1O[C@H]1O[C@H](CO)[C@@H](O)[C@H](N)[C@H]1O` [AMIKACIN], the Kd at Nucleic Acid [4] came to 50 nM.
`NC[C@H]1O[C@H](O[C@H]2[C@H](O)[C@@H](O[C@H]3O[C@H](CO)[C@@H](O)[C@H](N)[C@H]3O)[C@H](N)C[C@@H]2N)[C@H](N)[C@@H](O)[C@@H]1O` [BEKANAMYCIN] registered a Kd on Nucleic Acid [4] of 60 nM.
On the same count and under the same terms, as for `NC[C@@H]1O[C@H](O[C@H]2[C@@H](O)[C@H](O[C@@H]3[C@@H](O)[C@H](N)C[C@H](N)[C@H]3O[C@H]3O[C@H](CO)[C@@H](O)C[C@H]3N)O[C@@H]2CO)[C@H](N)[C@@H](O)[C@@H]1O[C@H]1O[C@H](CO)[C@@H](O)[C@H](O)[C@@H]1O` [LIVIDOMYCIN], the figure is 28 nM.
